{"source": "patent US20230265107A1", "about": "“PB2 INHIBITOR, AND PREPARATION METHOD THEREFOR AND USE THEREOF” (priority 2020, published 2023)"}
{"tested_on": "virus IFV A/PR/8/34", "assay": "Cytopathic effect (CPE) method, antiviral activity against influenza virus in MDCK cells, CCK-8 cell viability", "assay_type": "cell-based", "conditions": "PR/8, MDCK, 120 h, read-out: EC50 (IFV A/PR/8/34) nM", "units": {"EC50": "nM"}}
{"smiles": "O=C(O)[C@H]1[C@H]2CC[C@H](CC2)[C@@H]1Nc1nc(-c2c[nH]c3ncc(F)cc23)nn2cc(C3CC3)cc12", "note": "[Example 8, (1R,2S,3S,4R)-3-((6-cyclopropyl-2-(5-fluoro-1H-pyrrolo[2,3-b]pyridin-3-yl)pyrrolo[2,1-f][1,2,4]triazin-4-yl)amino)bicyclo[2.2.2]octane-2-carboxylic acid]", "EC50": 0.8}
{"smiles": "O=C(O)[C@H]1[C@H]2CC[C@H](CC2)[C@@H]1Nc1nc(-c2c[nH]c3ncc(F)cc23)nn2c(C(F)(F)F)ccc12", "note": "[Example 18, (1R,2S,3S,4R)-3-((2-(5-fluoro-1H-pyrrolo[2,3-b]pyridin-3-yl)-7-(trifluoromethyl)pyrrolo[2,1-f][1,2,4]triazin-4-yl)amino)bicyclo[2.2.2]octane-2-carboxylic acid]", "EC50": 0.3}
{"smiles": "COCc1ccc2c(N[C@@H]3[C@@H](C(=O)O)[C@H]4CC[C@@H]3C3CC34)nc(-c3c[nH]c4ncc(F)cc34)nn12", "note": "(stereo partly drawn) [Example 20, (1R,5S,6S,7S)-7-((2-(5-fluoro-1H-pyrrolo[2,3-b]pyridin-3-yl)-7-(methoxymethyl)pyrrolo[2,1-f][1,2,4]triazin-4-yl)amino)tricyclo[3.2.2.0^2,4]nonane-6-carboxylic acid]", "EC50": 0.3}
{"smiles": "O=C(O)[C@@H]1[C@@H](Nc2nc(-c3c[nH]c4ncc(F)cc34)nn3c(C(F)(F)F)ccc23)[C@@H]2CC[C@H]1C1CC12", "note": "(stereo partly drawn) [Example 30, (1R,5S,6S,7S)-7-((2-(5-fluoro-1H-pyrrolo[2,3-b]pyridin-3-yl)-7-(trifluoromethyl)pyrrolo[2,1-f][1,2,4]triazin-4-yl)amino)tricyclo[3.2.2.0^2′4]nonane-6-carboxylic acid]", "EC50": 0.37}
{"smiles": "O=C(O)[C@@H]1[C@@H](Nc2nc(-c3n[nH]c4ncc(F)cc34)nn3c(C(F)(F)F)ccc23)[C@@H]2CC[C@H]1C1CC12", "note": "(stereo partly drawn) [Example 31, (1R,5S,6S,7S)-7-((2-(5-fluoro-1H-pyrazolo[3,4-b]pyridin-3-yl)-7-(trifluoromethyl)pyrrolo[2,1-f][1,2,4]triazin-4-yl)amino)tricyclo[3.2.2.0^2,4]nonane-6-carboxylic acid]", "EC50": 0.08}
{"smiles": "COCc1ccc2c(N[C@@H]3[C@@H](C(=O)O)[C@H]4CC[C@@H]3C3CC34)nc(-c3n[nH]c4ncc(F)cc34)nn12", "note": "(stereo partly drawn) [Example 32, (1R,5S,6S,7S)-7-((2-(5-fluoro-1H-pyrazolo[3,4-b]pyridin-3-yl)-7-(methoxymethyl)pyrrolo[2,1-f][1,2,4]triazin-4-yl)amino)tricyclo[3.2.2.0^2,4]nonane-6-carboxylic acid]", "EC50": 0.24}
{"smiles": "O=C(O)[C@@H]1[C@@H](Nc2nc(-c3n[nH]c4ncc(F)cc34)nn3c(C4CC4)ccc23)[C@@H]2CC[C@H]1C1CC12", "note": "(stereo partly drawn) [Example 38, (1R,5S,6S,7S)-7-((7-cyclopropyl-2-(5-fluoro-1H-pyrazolo[3,4-b]pyridin-3-yl)pyrrolo[2,1-f][1,2,4]triazin-4-yl)amino)tricyclo[3.2.2.0^2,4]nonane-6-carboxylic acid]", "EC50": 0.09}
